One experiment has as its target T1, AIMP1 (Homo sapiens, UniProt Q12904).
T1 sequence (Q12904 1-312): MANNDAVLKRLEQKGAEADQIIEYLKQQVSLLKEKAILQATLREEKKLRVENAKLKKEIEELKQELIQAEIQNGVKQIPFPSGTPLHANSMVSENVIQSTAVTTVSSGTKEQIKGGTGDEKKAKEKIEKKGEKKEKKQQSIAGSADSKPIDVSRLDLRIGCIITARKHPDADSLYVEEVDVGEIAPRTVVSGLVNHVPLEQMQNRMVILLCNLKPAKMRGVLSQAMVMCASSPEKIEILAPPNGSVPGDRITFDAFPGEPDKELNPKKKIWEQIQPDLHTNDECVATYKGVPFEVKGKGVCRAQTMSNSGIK
The experiment can be described thus: Surface plasmon resonance, binding to AIMP1. The conditions noted are these: SPR, BIAcore 3000. The source says:
(§1) The present inventors compared the dose-dependent effect of GPM1 and NC1 on the interaction of gp96 and AIMP1 using ELISA. […] The present inventors monitored the binding kinetics of GPM1 to gp96 or AIMP1 by surface plasmon resonance (SPR) using BIAcore 3000. […] To further define the GPM1 binding region of gp96 (Han, J. M., Park, S. G., Liu, B., Park, B. J., Kim, J. Y., Jin, C. H., Song, Y. W., Li, Z. & Kim, S. Am. J. Pathol. 170, 2042-2054 (2007)), the present inventors introduced point mutations at L707, V706, V712, L713, F714, Y731 and M738 that are located within AIMP1 binding region of gp96 and monitored how the mutations at these sites would affect the binding of GPM1 to gp96 using SPR method.
In general terms: In SPR one partner is held on a chip, and binding of the other changes the refractive index at the surface.

Another experiment has as its target T2, gp96 M738L (Homo sapiens, UniProt P14625, M742L).
T2 construct: made in house; host or cells: Escherichia coli BL21 (DE3)
Kind of experiment: Surface plasmon resonance, GPM1 binding to gp96 mutant M738L. How it is done: Human gp96 was expressed as His tag fusion protein in Escherichia coli BL21 (DE3) and purified by nickel affinity chromatography. His-tagged human gp96 was immobilized onto CM5 sensor chips using standard amine coupling2. PBS was used as a running buffer. The carboxymethyl dextran surface within one side of the flow cell was activated with a 7-min injection of a 1:1 ratio of 0.4M EDC and 0.1M NHS. The protein was coupled to the surface with a 7-min injection of gp96 diluted in 10 mM sodium acetate, pH 3.7. Remaining activated groups were blocked with a 7-min injection of 1.0M ethanolamine, pH 8.5. GPM1 compound was dissolved directly in the PBS running buffer containing 1% DMSO and injected at a flow rate of 20 μl/min at 25° C. and the binding was determined by the change in resonance units (RU). The compound concentration varied from 10 nM to 25 μM and each concentration was tested at least three times. All of the bound complexes dissociated back to baseline within a reasonable time frame. Therefore, no regeneration was required. Sensorgram was processed by subtracting the binding response recorded from the control surface, followed by subtracting an average of the buffer blank injections from the reaction spot. To determine kinetic rate constants, all data sets were fit to a simple 1:1 binding with drifting baseline model using BIAevaluation program.
as §1

By Kd is commonly meant a measure of binding affinity in units of concentration. The low end stands for a tighter complex, the high end for a looser complex.

T2 sequence (P14625 22-803 M742L): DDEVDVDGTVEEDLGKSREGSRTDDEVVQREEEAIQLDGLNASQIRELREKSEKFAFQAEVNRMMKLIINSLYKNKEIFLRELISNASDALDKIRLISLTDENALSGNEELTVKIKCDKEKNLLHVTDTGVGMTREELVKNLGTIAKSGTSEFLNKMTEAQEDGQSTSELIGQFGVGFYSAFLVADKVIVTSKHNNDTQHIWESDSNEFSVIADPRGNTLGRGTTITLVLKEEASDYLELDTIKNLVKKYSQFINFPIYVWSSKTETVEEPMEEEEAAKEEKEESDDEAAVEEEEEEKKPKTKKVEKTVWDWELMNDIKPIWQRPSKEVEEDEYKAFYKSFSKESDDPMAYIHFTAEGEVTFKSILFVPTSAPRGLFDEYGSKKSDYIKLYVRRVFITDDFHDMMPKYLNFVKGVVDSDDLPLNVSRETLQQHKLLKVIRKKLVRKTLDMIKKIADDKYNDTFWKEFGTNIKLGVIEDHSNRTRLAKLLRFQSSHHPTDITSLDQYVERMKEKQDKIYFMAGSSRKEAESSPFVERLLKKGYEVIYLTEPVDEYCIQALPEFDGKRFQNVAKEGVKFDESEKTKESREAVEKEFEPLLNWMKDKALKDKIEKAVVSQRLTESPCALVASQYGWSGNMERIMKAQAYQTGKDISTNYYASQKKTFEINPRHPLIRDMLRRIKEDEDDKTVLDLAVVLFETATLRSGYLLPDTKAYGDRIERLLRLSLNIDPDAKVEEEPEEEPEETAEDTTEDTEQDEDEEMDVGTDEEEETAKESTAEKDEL

For `COC(=O)[C@@H](Oc1nc(OC)cc(OC)n1)C(C)C` [GPM1, (S)-methyl 2-(4,6-dimethoxypyrimidin-2-yloxy)-3-methylbutanoate], at AIMP1, the “binding to AIMP1” value was “no apparent binding”. On gp96 M738L, binding was characterised by a dissociation constant (Kd) of 210 nM and the “koff (dissociation rate constant)” value is 0.0132 s⁻¹. The kon on gp96 M738L (read-out: Ka) is 63000 M⁻¹ s⁻¹.

The values above are taken from patent US9573907B2, “2, 4-pyrimidine derivatives and use thereof” (SNU R&DB FOUNDATION, priority 2009, dated 2017).
